The values that follow come from patent US9808470B2, “Estrogenic components for use in the treatment of neurological disorders” (UNIVERSITE DE LIEGE, priority 2012, dated 2017).

Assay [1] has as its system Microtubule-associated protein 2 (MAP2). As to the kind of experiment: Ex.3 neuroprotective HIE rat model: MAP2 staining. The format is in vivo. The following applies: PND14. As to the method:
The brain sections were processed for immunohistochemical detection of neuronal cytoskeletal disruption. For antigen retrieval, the sections were heated in 10 mmol/L citrate buffer (pH 6.0) at 100° C. for 10 minutes. Endogenous peroxidase activity was blocked with 3% hydrogen peroxide for 10 minutes and after a second blocking with 5% normal goat serum, the sections were incubated with anti-microtubule-associated protein 2 (MAP2) antibody, diluted 1:1000 (mouse monoclonal antibody; Sigma, St. Louis, Mo., US) 1 h at room temperature. After rinsing, biotinylated goat anti-mouse immunoglobulin G (Vector Laboratories, Burlingame, Calif.) was added, and antibody detection was performed with the avidin-biotin complex method (Vector Laboratories), with 3,3′-diaminobenzidine (DAB) as the chromogen. Following the reaction with DAB, the slides were washed, dehydrated, and coverslipped.
Samples were analyzed with the aid of an image scanner (Nanozoomer Virtual Microscopy, Hamamatsu, Tokyo, Japan) and the ImageJ software (NIH, US). The MAP2 positive areas in the ipsilateral and contralateral hemispheres were measured. The ratio of the MAP2 positive areas was calculated as the MAP2 positive area of the ipsilateral hemisphere divided by the MAP2 positive area of the contralateral hemisphere. The ratio of the MAP2 positive area in the Sham group was considered by default as 1.0.
Newborn rat pups were assigned to one of the following 6 groups from postnatal day 4: Sham group (n=24), Vehicle group (n=14), E4 1 mg/kg/per day group (n=11), E4 5 mg/kg/per day group (n=14), E4 10 mg/kg/per day group (n=14), or E4 50 mg/kg/per day group (n=19). From postnatal day 4, rat pups were intraperitoneally injected either vehicle (Vehicle group) or E4 (1, 5, 10, or 50 mg/kg/per day in accordance to the E4 group assignment) or neither vehicle nor E4 (Sham group). At day 7, 30 minutes after last injection, animals were anesthetized with isoflurane (induction, 3.0%; maintenance, 1.5%), and the rat pups from Vehicle and E4 groups passed through surgery encompassing left common carotid artery double ligation and cut. After the procedure, the pups were returned to their dams and were allowed to recover for 1 hour. The pups were then placed in the humidified hypoxic in vivo cabinet (CoyLab, Grass Lake, Mich., USA). Hypoxia was produced by the inhalation of 11%-8% of oxygen balanced by nitrogen at decreased concentration of oxygen for 20 minutes, followed by inhalation of 8% oxygen and 92% nitrogen at constant concentration for 35 minutes. All the manipulations were performed at 37° C. The Sham group went through similar procedures without left common carotid artery ligation followed by hypoxia nor injection. […]

Assay [2] deals with glial fibrillary acidic protein (GFAP). The assay can be described thus: Ex.8 therapeutic HIE rat model: blood serum GFAP ELISA. The format is in vivo. The following applies: 10 mg/kg/day E4, PND14. How it is done: To study the therapeutic effect of estetrol, newborn rat pups were assigned to one of the following 14 groups at postnatal day 7 (FIG. 23(B)): Sham group (n=12), Vehicle (n=15), 5 mg/kg/day E4 (n=11), 10 mg/kg/day E4 (n=11), 5 mg/kg/day E4+1.6 mg/kg/day PROG (n=11), 10 mg/kg/day E4+1.6 mg/kg/day PROG (n=11), 5 mg/kg/day E4+16 mg/kg/day PROG (n=11), 10 mg/kg/day E4+16 mg/kg/day PROG (n=13), 5 mg/kg/day E4+136 ng//kg/day E2 (n=11), 10 mg/kg/day E4+136 ng/kg/day E2 (n=11), 5 mg/kg/day E4+1.6 mg/kg/day PROG+136 ng/kg/day E2 (n=12), 10 mg/kg/day E4+1.6 mg/kg/day PROG+136 ng/kg/day E2 (n=11), 5 mg/kg/day E4+16 mg/kg/day PROG+136 ng/kg/day E2 (n=11), 10 mg/kg/day E4+16 mg/kg/day PROG+136 ng/kg/day (n=12) groups. […] After surgery, the pups were returned to their dams and allowed to recover for 1 hour. The pups were then placed in a humidified hypoxic in vivo cabinet (CoyLab). Hypoxia was produced by the inhalation of 11%-8% of oxygen balanced by nitrogen at decreased concentration of oxygen for 20 minutes, followed by inhalation of 8% oxygen and 92% nitrogen at constant concentration for 35 minutes. All the manipulations were performed at 37° C. Upon retrieval from the hypoxia chamber the rat pups were injected ip once either by vehicle (vehicle group) or by in accordance to the group assignment. […]
For orientation: ELISA stands for enzyme-linked immunosorbent assay.

As to `C[C@]12CC[C@@H]3c4ccc(O)cc4CC[C@H]3[C@@H]1[C@@H](O)[C@@H](O)[C@@H]2O` [E4, 1,3,5(10)-estratrien-3,15α,16α,17β-tetrol], the “ratio of MAP2-positive area (ipsilateral/contralateral)” value in assay [1] (1 mg/kg E4 ip PND4-7 before HI) stood at 0.929±0.019; in assay [1] (5 mg/kg E4 ip PND4-7 before HI) it was 0.889±0.063; in assay [1] (10 mg/kg E4 ip PND4-7 before HI), 0.898±0.022; in assay [1] (50 mg/kg E4 ip PND4-7 before HI), 0.922±0.031. Moreover, the “GFAP protein concentration in blood serum” value in assay [2] was 10806.52 ± 1015.19 pg/mL.
